The target of this assay is canine TRPM8 (Canis lupus familiaris, UniProt Q1A7N1). Description: In Vitro Canine TRPM8 Functional Assay (Ca2+ fluorescence, icilin activation). Type of assay: cell-based. To be noted: for inhibition at 0.2 µM: read-out: % Inh @ 0.2; for IC50: read-out: IC50; for inhibition at 0.5 µM: compound at 0.5 μM, read-out: % Inh @ 0.5. The gist of the method: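 Readout is the intracellular Ca2+ fluorescence change, measured by FLIPR or FDSS, in HEK293 cells stably expressing canine TRPM8. Potency (EC50 or IC50) is fitted from eight concentrations averaged over quadruplicate wells.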
canine TRPM8, sequence (Q1A7N1 1-1104): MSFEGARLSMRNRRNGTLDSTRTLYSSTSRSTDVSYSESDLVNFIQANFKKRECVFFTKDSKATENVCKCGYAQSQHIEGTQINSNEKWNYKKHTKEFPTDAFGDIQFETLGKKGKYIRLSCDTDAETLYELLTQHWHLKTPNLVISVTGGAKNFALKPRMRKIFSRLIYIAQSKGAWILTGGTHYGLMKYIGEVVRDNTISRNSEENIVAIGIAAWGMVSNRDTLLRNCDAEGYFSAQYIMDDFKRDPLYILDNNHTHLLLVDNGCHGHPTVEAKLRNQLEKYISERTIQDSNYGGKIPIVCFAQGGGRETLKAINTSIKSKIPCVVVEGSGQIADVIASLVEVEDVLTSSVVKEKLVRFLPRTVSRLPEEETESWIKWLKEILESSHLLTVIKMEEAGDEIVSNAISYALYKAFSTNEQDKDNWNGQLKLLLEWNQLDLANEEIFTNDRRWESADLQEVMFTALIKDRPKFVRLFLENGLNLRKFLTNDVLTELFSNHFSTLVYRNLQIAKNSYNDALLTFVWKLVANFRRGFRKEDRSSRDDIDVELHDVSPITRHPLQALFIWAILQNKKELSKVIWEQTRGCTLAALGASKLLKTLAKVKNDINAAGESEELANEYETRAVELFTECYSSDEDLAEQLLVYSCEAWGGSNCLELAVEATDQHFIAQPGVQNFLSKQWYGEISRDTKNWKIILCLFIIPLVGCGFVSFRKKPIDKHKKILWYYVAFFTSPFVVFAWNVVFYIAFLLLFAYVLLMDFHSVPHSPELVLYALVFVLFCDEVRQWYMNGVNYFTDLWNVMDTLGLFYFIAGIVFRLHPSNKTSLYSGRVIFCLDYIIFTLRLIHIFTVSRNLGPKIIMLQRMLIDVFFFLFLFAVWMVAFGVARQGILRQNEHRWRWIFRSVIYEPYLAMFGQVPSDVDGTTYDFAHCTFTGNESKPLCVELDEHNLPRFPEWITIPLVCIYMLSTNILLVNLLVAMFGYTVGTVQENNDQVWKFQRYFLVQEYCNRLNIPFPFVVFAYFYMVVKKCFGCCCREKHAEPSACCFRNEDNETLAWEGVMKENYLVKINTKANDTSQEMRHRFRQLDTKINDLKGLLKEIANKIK

The mark [1] stands for this setting: HEK293 cells stably expressing canine TRPM8, icilin activation, eight-point dose-response.
Setting [2] is: compound at 0.2 μM, canine TRPM8, icilin activation.
Setting [3] is: canine TRPM8, icilin activation.

Like-named read-outs stand apart in the source and are kept apart here.

In general, IC50 refers to the point on the concentration scale where inhibition reaches its midpoint. On to `Cc1c(N(CCCF)S(=O)(=O)c2ccc(F)c(F)c2)sc2ccccc12` [Compound 831, N-(3-Fluoro-propyl)-N-(3-methyl-benzo[b]thiophen-2-yl)-3,4-difluoro-benzenesulfonamide], for which the inhibition at 0.2 µM (0.2 μM compound, HEK293 cells stably expressing canine TRPM8, icilin activation) is 91%. Also, where the note is “HEK293 cells stably expressing canine TRPM8, icilin activation, average of two or more determinations”, the 50% inhibitory concentration (IC50) amounted to 50 nM. `Cc1c(N(Cc2ccc(F)c(C(F)(F)F)c2)S(=O)(=O)c2cnc(Cl)c(Br)c2)sc2ccccc12` [Compound 330, N-(3-Methyl-benzo[b]thiophen-2-yl)-N-(4-fluoro-3-trifluoromethyl-benzyl)-5-bromo-6-chloro-pyridin-3-ylsulfonamide]: the IC50 under setting [1] is 88 nM. In addition, the inhibition at 0.2 µM under setting [2] was determined as 80%. Taken in the same sequence, the figures for `Cc1c(N(Cc2ccc(F)c(C(F)(F)F)c2)S(=O)(=O)CCCCO)sc2ccccc12` [Compound 758, N-(4-Fluoro-3-trifluoromethyl-benzyl)-N-(3-methyl-benzo[b]thiophen-2-yl)-4-hydroxy-butanesulfonamide] were 5.1 nM and 101%. As to `CCCCN(c1sc2ccccc2c1OC)S(=O)(=O)c1ccc(C(=O)O)cc1` [Compound 423, N-(Butyl)-N-(3-methoxy-benzo[b]thiophen-2-yl)-4-carboxy-benzenesulfonamide], the IC50 under setting [1] was 7 nM. The inhibition at 0.2 µM under setting [2] came out at 93%. On the same counts, the results for `CCCCN(c1cc2ccccc2s1)S(=O)(=O)c1ccc(-c2noc(=O)[nH]2)cc1` [Compound 442, N-(Benzo[b]thiophen-2-yl)-N-(butyl)-4-(5-oxo-4,5-dihydro-[1,2,4]oxadiazol-3-yl)-benzenesulfonamide] are 67 nM and 81%.

For `Cc1c(N(Cc2ccc(F)c(C(F)(F)F)c2)S(=O)(=O)CCCC(=O)O)sc2ccccc12` [Compound 765, N-(4-Fluoro-3-trifluoromethyl-benzyl)-N-(3-methyl-benzo[b]thiophen-2-yl)-3-carboxy-propanesulfonamide], the half-maximal inhibitory concentration (IC50) under setting [1] was 13.6 nM. In addition, under setting [2], the inhibition at 0.2 µM came out at 101%. Regarding `CS(=O)(=O)N(Cc1ccc(F)c(C(F)(F)F)c1)c1sc2ccccc2c1Br` [Compound 157, N-(3-Bromo-benzo[b]thiophen-2-yl)-N-(4-fluoro-3-trifluoromethyl-benzyl)-methanesulfonamide], under setting [1], the IC50 was found to be 14 nM. Besides, the inhibition at 0.2 µM under setting [2] is 100%. Turning to `O=S(=O)(c1ccccc1)N(CCc1ccccc1)c1cc2ccccc2s1` [Compound 115, N-(Benzo[b]thiophen-2-yl)-N-(phenethyl)-benzenesulfonamide], the 50% inhibitory concentration (IC50) under setting [1] came to 79.5 nM. Besides, under setting [3], the inhibition at 0.5 µM was 95%.

`COC(=O)c1ccc(S(=O)(=O)N(CCC2CC2)c2sc3ccccc3c2C(C)C)cc1` [Compound 564, N-(2-Cyclopropyl-ethyl)-N-(3-isopropyl-benzo[b]thiophen-2-yl)-4-carbomethoxy-benzenesulfonamide]: under setting [2], the inhibition at 0.2 µM was 57.7%.

As to `COc1ccc(Br)cc1CN(c1sc2ccccc2c1Br)S(=O)(=O)c1ccccc1` [Compound 161, N-(3-Bromo-benzo[b]thiophen-2-yl)-N-(5-bromo-2-methoxy-benzyl)-benzenesulfonamide], the IC50 under setting [1] turned out to be 55.4 nM. The inhibition at 0.5 µM under setting [3] worked out at 95%. On to `Cc1c(N(CCC2CC2)S(=O)(=O)c2ccc(-c3nsc(=O)[nH]3)cc2)sc2ccccc12` [Compound 641, N-(3-Methyl-benzo[b]thiophen-2-yl)-N-(cyclopropyl-ethyl)-4-(5-oxo-4,5-dihydro-[1,2,4]thiadiazol-3-yl)-benzenesulfonamide], for which the IC50 under setting [1] turned out to be 14 nM. Moreover, under setting [2], the inhibition at 0.2 µM is 103%.

On to `CCS(=O)(=O)N(Cc1ccc(F)c(C(F)(F)F)c1)c1sc2ccccc2c1C#N` [Compound 198, N-(3-Cyano-benzo[b]thiophen-2-yl)-N-(4-fluoro-3-trifluoromethyl-benzyl)-ethanesulfonamide], for which the IC50 under setting [1] was determined as 10 nM. The inhibition at 0.2 µM under setting [2] is 95%. Regarding `C=C(C)c1c(N(Cc2cc(OC)c(Cl)cc2F)S(=O)(=O)CC)sc2ccccc12` [Compound 768, N-(4-Chloro-2-fluoro-5-methoxy-benzyl)-N-(3-isopropenyl-benzo[b]thiophen-2-yl)-ethanesulfonamide], the IC50 under setting [1] came to 18.8 nM. Further, the inhibition at 0.2 µM under setting [2] came out at 93%. In the case of `Cc1c(N(Cc2ccc(F)c(C(F)(F)F)c2)S(=O)(=O)c2ccc(C3=NOS(=O)N3)cc2)sc2ccccc12` (centres unmarked) [Compound 543, N-(3-Methyl-benzo[b]thiophen-2-yl)-N-(4-fluoro-3-trifluoromethyl-benzyl)-4-(3H-[1,2,3,5]oxathiadiazole-2-oxide)-benzenesulfonamide], the IC50 under setting [1] is 7.2 nM. Further, the “% Inh @ 0.2 (μM)” value under setting [2] is reported as 104.46%. Turning to `CCCCN(c1sc2ccccc2c1C(C)(C)O)S(=O)(=O)c1ccc(C(=O)OC)cc1` [Compound 516, N-(Butyl)-N-(3-(1-hydroxy-1-methyl-ethyl)-benzo[b]thiophen-2-yl)-4-carbomethoxy-benzenesulfonamide], under setting [1], the IC50 worked out at 19 nM. Under setting [2], the inhibition at 0.2 µM worked out at 102%. Taken in the same sequence, the figures for `Cc1c(N(CCCCC(F)(F)F)S(=O)(=O)c2ccccc2)sc2ccccc12` [Compound 617, N-(3-Methyl-benzo[b]thiophen-2-yl)-N-(5,5,5-trifluoro-pentyl)-benzenesulfonamide] were 7.4 nM and 101%. Take `Cc1c(N(Cc2ccc(F)c(C(F)(F)F)c2)S(=O)(=O)c2ccc(-c3cnco3)cc2)sc2ccccc12` [Compound 334]: the IC50 under setting [1] was 6 nM. For the same compound, under setting [2], the inhibition at 0.2 µM turned out to be 98%. In the case of `O=S(=O)(c1ccc(-c2nnn[nH]2)cc1)N(Cc1ccc(F)c(C(F)(F)F)c1)c1sc2ccccc2c1Br` [Compound 475, N-(3-Bromo-benzo[b]thiophen-2-yl)-N-(4-fluoro-3-trifluoromethyl-benzyl)-4-(1H-tetrazol-5-yl)-benzenesulfonamide], the concentration for half-maximal inhibition (IC50) under setting [1] stood at 2 nM. For the same compound, the inhibition at 0.2 µM under setting [2] is 102%. Turning to `Cc1c(N(Cc2ccc(F)c(F)c2)S(=O)(=O)c2ccc(O)cc2)sc2ccccc12` [Compound 285, N-(3,4-Difluoro-benzyl)-N-(3-methyl-benzo[b]thiophen-2-yl)-4-hydroxy-benzenesulfonamide], under setting [1], the IC50 amounted to 2.5 nM. Moreover, the inhibition at 0.5 µM under setting [3] is 100%.

For the compound `O=S(=O)(c1ccccc1)N(Cc1ccccc1OC(F)(F)F)c1sc2ccccc2c1Br` [Compound 172, N-(3-Bromo-benzo[b]thiophen-2-yl)-N-(2-trifluoromethoxy-benzyl)-benzenesulfonamide], the IC50 under setting [1] is 11.1 nM. Also, the inhibition at 0.5 µM under setting [3] was 98%.

In the case of `COC(=O)c1ccc(S(=O)(=O)N(CCCC(F)(F)F)c2sc3cc(F)ccc3c2C)cc1` [Compound 412, N-(6-Fluoro-3-methyl-benzo[b]thiophen-2-yl)-N-(4,4,4-trifluoro-butyl)-4-carbomethoxybenzenesulfonamide], the inhibition at 0.2 µM under setting [2] was determined as 13%.

As to `Cc1c(N(Cc2ccc(F)c(C(F)(F)F)c2)S(=O)(=O)c2nc3ccccc3n2C)sc2ccccc12` [Compound 722, N-(3-Methyl-benzo[b]thiophen-2-yl)-N-(4-fluoro-3-trifluoromethyl-benzyl)-1-methyl-1H-benzimidazole-2-sulfonamide], the inhibition at 0.2 µM under setting [2] came out at 28%.

(Values after patent publication US9434711B2 (Janssen Pharmaceutica, NV, priority 2007, dated 2016).)
